Series [1] can be described thus: Metabolic stability in rat liver microsomes assessed as parent compound remaining at 10 uM measured after 10 mins in presence of NADPH and GSH by UPLC-MS/MS analysis. Conditions: read-out: Stability; call rule not given here. It counts as ADME, Microsome.
Series [2] deals with T1, hERG (KCNH2) (Homo sapiens, UniProt Q12809). Briefly: Inhibition of human ERG expressed in HEK293 cells at 1 uM incubated for 2 to 5 mins by Manual patch clamp assay relative to control. Conditions: HEK293 cells expressing hERG, time 2-5 min. It counts as toxicity, cell-based.
A short description of series [3]: Metabolic stability in human liver microsomes assessed as parent compound remaining at 10 uM measured after 10 mins in presence of NADPH and GSH by UPLC-MS/MS analysis. It counts as ADME, Microsome. The settings on record: read-out: Stability.
Series [4] has as its target T1, hERG (KCNH2). Briefly: Inhibition of human ERG expressed in HEK293 cells at 10 uM incubated for 2 to 5 mins by Manual patch clamp assay relative to control. It counts as toxicity, cell-based. The settings on record: HEK293 cells expressing hERG, time 2-5 min.
In series [5] the target is T2, ATP-sensitive inward rectifier potassium channel 1 (Homo sapiens, UniProt P48048).
T2 sequence (P48048 whole entry): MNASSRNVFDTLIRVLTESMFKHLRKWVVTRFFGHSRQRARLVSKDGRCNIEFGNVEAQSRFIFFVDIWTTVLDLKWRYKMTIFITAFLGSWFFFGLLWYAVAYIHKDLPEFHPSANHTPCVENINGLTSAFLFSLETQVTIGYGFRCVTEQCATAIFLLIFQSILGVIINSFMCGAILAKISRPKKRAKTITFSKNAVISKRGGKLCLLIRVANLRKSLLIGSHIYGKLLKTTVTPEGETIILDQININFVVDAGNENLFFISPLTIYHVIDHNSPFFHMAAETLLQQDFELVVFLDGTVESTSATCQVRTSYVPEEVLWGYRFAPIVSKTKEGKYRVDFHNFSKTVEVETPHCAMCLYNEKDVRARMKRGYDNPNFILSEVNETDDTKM
Description: Inhibition of human ROMK expressed in T-REX-CHO cells incubated for 30 mins by thallium flux assay

Series [6] in a line: Glutathione reactivity in human liver microsomes assessed as GSH-adduct formation at 10 uM incubated for 60 mins in presence of NADPH and GSH by HPLC-MS analysis. Conditions: 1 h. It counts as ADME, Microsome.
The target in series [7] is Voltage-gated inwardly rectifying potassium channel KCNH2 (Homo sapiens, UniProt Q12809). Briefly: Inhibition of human ERG expressed in HEK293 cells incubated for 2 to 5 mins by Manual patch clamp assay. The series is classed as toxicity, cell-based.
The species entered for series [8] is Homo sapiens. The series is described as follows: Selectivity ratio of IC50 for inhibition of ERG expressed in HEK293 cells to IC50 for inhibition of human ROMK expressed in T-REX-CHO cells incubated for 3 to 8 mins by whole cell manual patch clamp assay. It counts as cell-based.
Series [9] concerns the target T2, ATP-sensitive inward rectifier potassium channel 1. The source holds these as a separate data set.
Description: Inhibition of human ROMK expressed in T-REX-CHO cells incubated for 3 to 8 mins by whole cell manual patch clamp assay
Series [10] is filed under the species Homo sapiens. Briefly: Selectivity ratio of IC50 for inhibition of ERG expressed in HEK293 cells to IC50 for inhibition of human ROMK expressed in T-REX-CHO cells incubated for 30 mins by thallium flux assay. It counts as cell-based.
In series [11] the target is T1, hERG (KCNH2). Briefly: Inhibition of human ERG expressed in HEK293 cells at 3 uM incubated for 2 to 5 mins by Manual patch clamp assay relative to control. Conditions: HEK293 cells expressing hERG, time 2-5 min. It counts as toxicity, cell-based.

T1 sequence (Q12809 whole entry): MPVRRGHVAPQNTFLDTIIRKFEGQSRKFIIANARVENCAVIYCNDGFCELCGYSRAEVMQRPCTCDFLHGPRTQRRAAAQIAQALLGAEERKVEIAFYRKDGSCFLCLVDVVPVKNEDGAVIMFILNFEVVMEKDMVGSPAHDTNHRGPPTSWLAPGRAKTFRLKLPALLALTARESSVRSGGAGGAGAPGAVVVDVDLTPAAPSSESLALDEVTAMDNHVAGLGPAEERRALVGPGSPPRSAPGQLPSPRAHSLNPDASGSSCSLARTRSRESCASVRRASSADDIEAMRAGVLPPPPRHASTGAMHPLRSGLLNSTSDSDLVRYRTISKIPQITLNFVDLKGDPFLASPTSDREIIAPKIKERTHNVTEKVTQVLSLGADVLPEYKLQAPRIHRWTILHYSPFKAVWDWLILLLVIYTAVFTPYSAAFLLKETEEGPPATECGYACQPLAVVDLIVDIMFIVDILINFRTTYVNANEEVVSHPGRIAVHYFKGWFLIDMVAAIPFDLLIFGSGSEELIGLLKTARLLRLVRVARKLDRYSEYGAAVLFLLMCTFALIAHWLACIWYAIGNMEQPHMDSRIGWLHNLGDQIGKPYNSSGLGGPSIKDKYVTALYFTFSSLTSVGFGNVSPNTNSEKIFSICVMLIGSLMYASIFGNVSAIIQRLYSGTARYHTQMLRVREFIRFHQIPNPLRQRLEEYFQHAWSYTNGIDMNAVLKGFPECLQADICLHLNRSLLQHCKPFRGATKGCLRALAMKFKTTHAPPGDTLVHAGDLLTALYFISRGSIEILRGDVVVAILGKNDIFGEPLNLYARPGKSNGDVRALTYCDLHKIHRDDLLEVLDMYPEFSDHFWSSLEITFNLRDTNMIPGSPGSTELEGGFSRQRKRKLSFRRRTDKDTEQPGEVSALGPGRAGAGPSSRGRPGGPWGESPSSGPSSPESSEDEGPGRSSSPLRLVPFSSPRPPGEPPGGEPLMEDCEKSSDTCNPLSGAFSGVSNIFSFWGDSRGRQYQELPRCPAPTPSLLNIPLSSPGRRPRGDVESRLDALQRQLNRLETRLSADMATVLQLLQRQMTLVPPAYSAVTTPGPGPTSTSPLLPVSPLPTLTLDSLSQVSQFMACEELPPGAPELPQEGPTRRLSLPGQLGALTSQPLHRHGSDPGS
Sequence of Voltage-gated inwardly rectifying potassium channel KCNH2 (Q12809 whole entry): as above

Regarding `Cc1cc(-n2cc(CN3CCO[C@H](c4ccc5c(c4C)COC5=O)C3)cn2)ncc1C#N`, the remaining at 10 min, 10 µM stood at 60% in [1] and 49% in series [3]. For the same compound, at 1 µM the inhibition against hERG (KCNH2) [2] was 26%.
`COc1c(CNC[C@H](O)c2ccc3c(c2C)COC3=O)cnn1-c1cc(C)c(C#N)cn1` yielded an inhibition at 1 µM against hERG (KCNH2) [2] of 91%.
As to `Cc1cc(-n2cc(CN3CC(=O)N[C@H](c4ccc5c(c4C)COC5=O)C3)cn2)ncc1C#N`, the figures for the remaining at 10 min, 10 µM in [1] and in series [3] were 67% and 64%, respectively. The inhibition at 10 µM at hERG (KCNH2) [4] turned out to be 42%.
Regarding `Cc1cc(-n2cnc(CNC[C@H](O)c3ccc4c(c3C)COC4=O)c2)ncc1C#N`, the remaining at 10 min, 10 µM in [1] is 67%; in series [3], 97%. The compound further yielded an inhibition at 10 µM against hERG (KCNH2) [4] of 72%. In [5], this compound had an IC50 of 46 nM.
Turning to `Cc1cc(-n2cc(CN3CC(c4ccc5c(c4C)COC5=O)NCC3C)cn2)ncc1C#N` (stereo not given), in series [6], the result was Active.
Regarding `Cc1cc(-n2cc(CN3CC(O)C(c4ccc5c(c4C)COC5=O)C3)cn2)ncc1C#N` (stereo not given), the remaining at 10 min, 10 µM in series [1] was 84%; in series [3] it was 100%. At hERG (KCNH2) [2], the inhibition at 1 µM was determined as 58%. In addition, in series [5], the half-inhibitory concentration (IC50) was 30 nM.
The compound `N#Cc1ccc(-c2ccc3c(c2)CCN(C[C@H](O)c2ccc4c(c2)COC4=O)C3)cc1F` displayed an inhibition at 1 µM at hERG (KCNH2) [2] of 97%. In series [5], this compound showed a half-inhibitory concentration (IC50) of 32 nM.
With `N#Cc1ccc(-c2ncc3c(n2)CCN(C[C@H](O)c2ccc4c(c2)COC4=O)C3)cc1F`, the remaining at 10 min, 10 µM came out at 44% in series [1] and 73% in [3]. On hERG (KCNH2) [2], this compound showed an inhibition at 1 µM of 50%. This compound returned a 50% inhibitory concentration (IC50) in [5] of 74 nM.
With `Cc1c([C@@H](O)CN2CCc3nc(-c4ccc(C#N)c(F)c4)ncc3C2)ccc2c1COC2=O`, the figures for the IC50 in series [7], in series [9] and in [5] were 410 nM, 9.4 nM and 8.8 nM, respectively. For the same compound, the remaining at 10 min, 10 µM worked out at 96% in series [1] and 62% in series [3]. Further, at hERG (KCNH2) [2], the inhibition at 1 µM came out at 71%. In addition, the Ratio IC50 in the series listed under Homo sapiens [8] and in the series listed under Homo sapiens [10] was 40 in each case.
For `N#Cc1ccc(-c2ccc3c(n2)CCN(C[C@H](O)c2ccc4c(c2)COC4=O)C3)cc1F`, 1 µM produced 80% inhibition against hERG (KCNH2) [2]. Moreover, the IC50 in [9] is 37 nM; in series [5] it was 61 nM.
With `Cc1cc(-n2cc(CN3CCN[C@H](c4ccc5c(c4C)COC5=O)C3)cn2)ncc1C#N`, the remaining at 10 min, 10 µM turned out to be 90% in series [1] and 96% in series [3].
Consider `Cc1cc(-n2ncc(CN3CCN[C@H](c4ccc5c(c4C)COC5=O)C3)n2)ncc1C#N`, for which the remaining at 10 min, 10 µM in [1] and in series [3] was 100% throughout.
Turning to `N#Cc1ccc(-c2ccc3c(c2)CCN(CCc2ccc4c(c2)COC4=O)C3)cc1F`, the IC50 turned out to be 10 nM in series [7], 13 nM in series [9] and 59 nM in series [5]. The remaining at 10 min, 10 µM in [1] amounted to 8%; in series [3], 72%.
With `Cc1cc(-n2cc(CNC[C@H](O)c3ccc4c(c3C)COC4=O)c(C(F)F)n2)ncc1C#N`, the remaining at 10 min, 10 µM in series [1] worked out at 1%; in series [3], 18%. The compound also had an inhibition at 10 µM against hERG (KCNH2) [4] of 77%.
On to `Cc1cc(-n2cc(CN3C[C@@H](c4ccc5c(c4C)COC5=O)OC(C)(C)C3)cn2)ncc1C#N`, for which the remaining at 10 min, 10 µM in series [1] worked out at 56%; in series [3], 44%. The compound further came in with an inhibition at 1 µM against hERG (KCNH2) [2] of 13%.
In the case of `Cc1cc(-n2ccc(CNC[C@H](O)c3ccc4c(c3C)COC4=O)n2)ncc1C#N`, the results for the remaining at 10 min, 10 µM in series [1] and in [3] were 1% and 12%, respectively. Besides, 10 µM produced 59% inhibition against hERG (KCNH2) [4]. The compound also returned a half-maximal inhibitory concentration (IC50) in [5] of 430 nM.
For the compound `Cc1cc(-n2cc(CN3CC[C@@H](O)[C@H](c4ccc5c(c4C)COC5=O)C3)cn2)ncc1C#N`, the remaining at 10 min, 10 µM in series [1] turned out to be 75%; in [3], 64%. Further, the Activity entry in [6] is “Not Active”.
With `Cc1cc(-c2ncc(CNC[C@H](O)c3ccc4c(c3C)COC4=O)s2)ncc1C#N`, the remaining at 10 min, 10 µM in [1] stood at 33%; in series [3] it was 85%. Moreover, the inhibition at 10 µM against hERG (KCNH2) [4] was determined as 72%.
Consider `Cc1cc(-n2cc(CN3CC(O)CC(c4ccc5c(c4C)COC5=O)C3)cn2)ncc1C#N` (stereo not given), for which the remaining at 10 min, 10 µM in [1] was 50%; in [3], 54%. For the same compound, the inhibition at 3 µM against hERG (KCNH2) [11] came out at 76%. Besides, the result in [6] was Active.
For `Cc1c([C@@H](O)CN(C)Cc2ccc(-c3ccc(C#N)c(F)c3)nc2)ccc2c1COC2=O`, the remaining at 10 min, 10 µM was 7% in series [1] and 40% in series [3]. For the same compound, at hERG (KCNH2) [2], at 1 µM the inhibition was 68%.
Consider `Cc1cc(-n2cc(CN3CCCC(c4ccc5c(c4C)COC5=O)C3)cn2)ncc1C#N` (stereo not given), for which the remaining at 10 min, 10 µM in series [1] stood at 29%; in series [3], 59%. The compound further gave an inhibition at 1 µM at hERG (KCNH2) [2] of 75%.
For the compound `Cc1cc(-c2ccc(CNC[C@H](O)c3ccc4c(c3C)COC4=O)cn2)ncc1C#N`, the values for the remaining at 10 min, 10 µM in [1] and in series [3] were 46% and 90%, respectively. On hERG (KCNH2) [4], the inhibition at 10 µM came out at 71%.
With `Cc1cc(-n2cc(CNC[C@H](O)c3ccc4c(c3C)COC4=O)cn2)ncc1C#N`, the remaining at 10 min, 10 µM in series [1] stood at 72%; in series [3], 86%.
With `Cc1cc(-n2cc(CN3CCNC(c4ccc5c(c4C)COC5=O)C3C)cn2)ncc1C#N` (stereo not given), the remaining at 10 min, 10 µM in [1] was determined as 62%; in series [3] it was 46%. On hERG (KCNH2) [2], at 1 µM the inhibition was 45%. For the same compound, the result in [6] was Active.
Take `Cc1c([C@@H](O)CNCc2ccc(-c3ccc(C#N)c(F)c3)nc2)ccc2c1COC2=O`: the values for the remaining at 10 min, 10 µM in series [1] and in series [3] were 51% and 75%, respectively. This compound also displayed an inhibition at 1 µM against hERG (KCNH2) [2] of 66%.
For the compound `Cc1cc(-n2cc(CN3C[C@H](CO)N[C@H](c4ccc5c(c4C)COC5=O)C3)cn2)ncc1C#N`, the remaining at 10 min, 10 µM came out at 93% in series [1] and 76% in series [3]. For the same compound, in series [6], the Activity entry is reported as “Not Active”.
With `Cc1cc(-n2ncc(CN3C[C@@H](c4ccc5c(c4C)COC5=O)NC(C)(C)C3)n2)ncc1C#N`, the remaining at 10 min, 10 µM in [1] came to 100%; in series [3], 62%.
In the case of `Cc1cc(-n2ncc(CNC[C@H](O)c3ccc4c(c3C)COC4=O)n2)ncc1C#N`, the remaining at 10 min, 10 µM turned out to be 94% in [1] and 92% in series [3]. The half-maximal inhibitory concentration (IC50) in series [9] is 8.1 nM; in [5], 52 nM. The inhibition at 10 µM against hERG (KCNH2) [4] worked out at 87%.
